Data published in article PMC9481570, “A small molecule antagonist of SMN disrupts the interaction between SMN and RNAP II” (Nature Communications, 2022).
Where “and” joins values, the source holds several entries; their conditions need not be identical. Equal values may be shown once.

Legend:
[1] = target: T1, UHRF1 tandem Tudor domain (TTD) (Homo sapiens, UniProt Q96T88); test: ITC binding to tandem Tudor domain of UHRF1
T1 construct: UHRF1 (aa 126–285); His (N, cleaved yes); made in house; host or cells: E. coli BL21 (DE3) Codon plus RIL
T1 sequence (Q96T88 126-285): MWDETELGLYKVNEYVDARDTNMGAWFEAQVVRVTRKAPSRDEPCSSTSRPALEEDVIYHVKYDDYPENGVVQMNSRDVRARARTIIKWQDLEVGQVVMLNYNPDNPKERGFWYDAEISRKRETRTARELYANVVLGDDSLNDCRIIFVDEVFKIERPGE
Description: The coding DNA fragments of following Tudor domains were cloned into pET28-MHL vector: SMN (aa 82–147), UHRF1 (aa 126–285), SMNDC1 (aa 53–130), TDRD3 (aa 554–611), SND1 (aa 650–910), TDRD2 (aa 327–420), FXR1 (aa 2–132), PHF1 (aa 28–87), SGF29 (aa 115–293), JMJD2A (aa 897–1101), 53BP1 (aa 1483–1606), SETDB1 (aa 190–410), LBR (aa 1–67), ZGPAT (aa 120–271). The coding regions of chromodomain of CBX7 (aa 8–62), PWWP domain of DNMT3A (aa 275–417), WD40 repeats of WDR5 (aa 24–334) and CW domain of ZCWPW2 (aa 21–78) were also subcloned into pET28-MHL vector to generate N-terminally His-tagged fusion protein. The MBT repeats of L3MBTL1 (aa 200–522) and L3MBTL2 (aa 170–625) were subcloned into pET28GST-LIC vector to generate N-terminally GST-His-tagged fusion protein. All the plasmids were generated by ligase independent cloning (Vazyme Biotech, C112 or ABclonal Technology, RK21020). […] The proteins were further purified by Superdex75 or Superdex200 gel-filtration column (GE Healthcare) in a buffer containing 20 mM Tris-HCl, pH 7.5, 150 mM NaCl and 1 mM DTT. For crystallization experiments, purified proteins were concentrated to 18 mg/mL for SMN, 23 mg/mL for UHRF1 and 10 mg/mL for TDRD3 in the gel-filtration buffer. All the mutations were introduced with the QuikChange II XL site-directed mutagenesis kit (Stratagene, 200522) and confirmed by DNA sequencing. Mutant proteins were also expressed in E. coli BL21 (DE3) Codon plus RIL and purified using the same procedures described above. The molecular weight of all protein samples was measured by mass spectrometry.
For the ITC measurement, the concentrated proteins were diluted into 20 mM Tris-HCl, pH 7.5, 150 mM NaCl (ITC buffer); the lyophilized compounds were dissolved in the same buffer, and the pH value was adjusted by adding 2 M NaOH or 2 M HCl. The compounds that could not be dissolved in the ITC buffer were dissolved in DMSO with the accessible highest concentration. Compound concentrations were calculated from the mass and the volume of the solvent. For the ITC assay with compound dissolved in DMSO, the protein was diluted by ITC buffer containing same final concentration of DMSO. All measurements were performed in duplicate at 25 °C, using a VP-ITC (MicroCal, Inc.), an iTC-200 (MicroCal, Inc.), or a Nano-ITC (TA, Inc.) microcalorimeter. The protein with a concentration of 50–100 μM was placed in the cell chamber, and the compounds with a concentration of 0.5–2 mM in syringe was injected in 25, 20, or 20 successive injections with a spacing of 180, 150, or 120 s for VP-ITC, iTC-200, or Nano-ITC, respectively, as previously described[30]–[32]. iTC-200 or Nano-ITC data were consistent with those from the VP-ITC instrument, based on ITC results of SMN-compound 1 detected by using all the instruments. Control experiments were performed under identical conditions to determine the heat signals that arise from injection of the compounds into the buffer. Data were fitted using the single-site binding model within the Origin software 7.0 package (MicroCal, Inc.) or the independent model within the Nano-Analyze software package (TA, Inc.).

[2] = tested on: RNAP II occupancy at ACTB gene; test: RNAP II (POLR2A) ChIP-qPCR along the ACTB gene; type: cell-based, human; settings: 72 h; for POLR2A ChIP-qPCR, ACTB position 332 / POLR2A ChIP-qPCR, ACTB position 1671 / POLR2A ChIP-qPCR, ACTB position 2911 / POLR2A ChIP-qPCR, ACTB position 3560 / POLR2A ChIP-qPCR, ACTB position 3752 / POLR2A ChIP-qPCR, ACTB position 4657 / POLR2A ChIP-qPCR, ACTB position 5590 / POLR2A ChIP-qPCR, ACTB position -72: HEK293, 20 μM; for occupancy levels of RNAP II at the promoter regions and 3′-end of the ACTB gene: HEK293 cells, 20 µM
Experimental: ChIP was performed using the EZ-ChIP™ A - Chromatin Immunoprecipitation Kit (Millipore, 17-371) according to the manufacturer’s instruction. Antibodies were used with a range of 1–2 μg, and IgG (Millipore, polyclonal antibody, 12-370) was used as a background control. After immunoprecipitation, genomic DNA was de-crosslinked in ChIP elution buffer containing 5 M NaCl at 65 °C overnight and purified with the Qiaex II kit (Qiagen, 20021), and eluted in water for PCR amplification. Immunoprecipitated and input DNAs were used as templates for qPCR. The qPCR primer sequences for ACTB gene are the same as described earlier[9] and shown in the Supplementary Table 2. For analysis of SMN chemical antagonists, HEK293 cells were treated with DMSO, compound 1 or compound 2 (a final concentration of 20 μM) for 72 h, before processing for ChIP.

Row | Kd (UHRF1) [1] | SMILES | POLR2A ChIP-qPCR, ACTB position 332 [2] | POLR2A ChIP-qPCR, ACTB position 1671 [2] | POLR2A ChIP-qPCR, ACTB position 2911 [2] | POLR2A ChIP-qPCR, ACTB position 3560 [2] | POLR2A ChIP-qPCR, ACTB position 3752 [2] | POLR2A ChIP-qPCR, ACTB position 4657 [2] | POLR2A ChIP-qPCR, ACTB position 5590 [2] | POLR2A ChIP-qPCR, ACTB position -72 [2] | occupancy levels of RNAP II at the promoter regions and 3′-end of the ACTB gene [2] | Kd [1]
1 | No binding | CCCn1c2c(c(=N)c3c1CCC3)CCC2 [Compound 2, 4-propyl-2,3,4,5,6,7-hexahydrodicyclopenta[b,e]pyridin-8(1H)-imine] | 0.1333 | 0.1287 | 0.06481 | 0.09661 | 0.2124 | 0.1677 | 0.1104 | 0.5589 | significantly increased | 
2 |  | Cn1c2c(c(=N)c3c1CCC3)CCC2 [Compound 1, 4-methyl-2,3,4,5,6,7-hexahydrodicyclopenta[b,e]pyridin-8(1H)-imine] | 0.1628 | 0.1331 | 0.08894 | 0.1246 | 0.2307 | 0.1056 | 0.1381 | 0.4274 | significantly increased | ~16 µM and 16 µM
